The numbers were not newly measured in US20030237103A1, “Methods and compositions for pharmacological and toxicological evaluation of test agents” (priority 2002, published 2003), which cites them from elsewhere.

Read-outs that look alike come from different tables or passages of the source.

This data set relates to Sprague Dawley, LEW and F344 rats. The conditions noted are these: cited from earlier work.

Turning to gentamicin, the “susceptibility to nephrotoxic effects” value (F344 compared with SD) is “more susceptible”. In addition, the “nephrotoxic effects (protein in the urine)” value (LEW strain) is recorded as “sensitive” and the “nephrotoxic effects (protein in the urine)” value (Sprague Dawley rats) was “resistant”.
